Data taken from US20150368617A1, “METHOD FOR FORMING ENDOTHELIAL CELLS” (Korea Advanced Institute of Science and Technology (KAIST), priority 2012, published 2015).

Key:
VYI-ECs = test: Angiogenesis assay using a microfluidic device; assay type: cell-based, mouse; settings: 72 hr; co-treatment of Y27632 with VEGF-A
Experimental: To test the angiogenic property of VYI-ECs, we utilized a microfluidic platform that was modified from the previously described device. Briefly, a poly-dimethylsiloxane (PDMS) based microfluidic platform containing three channels was fabricated with poly-dimethylsiloxane using a soft lithography process. Two empty spaces in between three parallel channels were filled with a mixture of type I collagen (3 mg/ml, rat tail, BD Biosciences) and fibronectin (50 μg/ml, Invitrogen), which together acted as an ECM scaffold. The center channel was coated with fibronectin (10 μg/ml), and was seeded with 40˜50 μl of VYI-EC suspension (1×10^7 cells/ml). The device was tilted vertically for 1 hr to allow the cells to attach onto the sidewall of the scaffold by gravity. The cells were then seeded onto the other sidewall by flipping the device upside down. Cell culture media in the side channels containing VEGF-A (50 ng/ml) or VEGF-A (50 ng/ml) plus Y27632 (10 μM) were exchanged with fresh media every 12 hr. Phase contrast and immunofluorescent images were acquired to analyze the angiogenic sprouting formation of VYI-ECs.

Flk1+ MPCs = test: Differentiation and expansion of ECs from Flk1+ MPCs in feeder cell-free 2D Matrigel system, FACS of CD31+/CD144+ ECs; assay type: cell-based, mouse; settings: for differentiation and expansion of ECs compared to control: Y27632 10 μM; for increase of CD31+/CD144+ EC population compared to Control: day 6.5, E14tg2a
Experimental: E14tg2a ESC cell line was a generous gift from Dr. Jun K. Yamashita (Kyoto University), and R1 ESC cell line was purchased from American Type Cell Culture. Mouse iPSC derived from FVB strain was a generous gift from Drs. Hyun-Jai Cho and Hyo-Soo Kim (Seoul National University Hospital). To obtain Flk1+ MPCs, ESCs and iPSCs were cultured on 0.1% gelatin-coated plates at a density of 1-2×10^3 cells/cm^2 in differentiation medium [┌−minimal essential medium (Invitrogen) supplemented with 10% fetal bovine serum (FBS)] without leukemia inhibitory factor (LIF). At day 4.5, the Flk1+ MPCs were purified by AutoMACS™Pro Separator (Miltenyi Biotec) with biotin-conjugated anti-mouse Flk1 antibody (clone AVAS12a1, eBioscience) and streptavidin MicroBeads (Miltenyi Biotec). The Flk1+MPCs were then subsequently plated onto Matrigel (BD Biosciences)-coated plates at a density of 1˜2×10^4 cells/cm^2, and were cultured in differentiation medium supplemented with VEGF-A165 (50 ng/ml, Peprotech). To purify the ECs from the differentiating Flk1+ cells, the cells were first dissociated and resuspended in HBSS/2% FBS, and were serially incubated with anti-mouse ICAM2 antibody (rat monoclonal, clone 3C4, Biolegend) for 10 min and with anti-rat IgG Microbead (Miltenyi Biotec) for 15 min. […] VEGF-Trap was prepared as previously described. Various signaling inhibitors and activators including SB203580, PD98059, KT5720, Go6976, KT5823, LY294002, rapamycin, Y27632, SB431542, Rho-kinase inhibitor (RKI; H-1152, isoquinolinesulfonamide), and Rho-kinase inhibitor II (RKI-II; pyridyl urea) were purchased from Calbiochem and Sigma-Aldrich.
Cells were harvested with 0.25% trypsin-EDTA (Invitrogen) or dissociation buffer (Invitrogen) and resuspended in HBSS/2% FBS at 1×10^6 cells per 100┌ l. The cells were incubated for 20 min with the following antibodies: biotin-conjugated anti-mouse Flk1 (clone AVAS12a1, eBioscience), allophycocyanin (APC)-conjugated anti-mouse CD140a (clone APA5, eBioscience), phycoerythrin(PE)-conjugated anti-mouse CD31 (clone 390, eBioscience), Alexa Fluor® 647-conjugated anti-mouse CD144 (clone BV13, eBioscience), PE-conjugated anti-mouse D114 (clone HMD4-1, Biolegend), PE-conjugated anti-mouse Tie2 (clone TEK4, eBioscience), PE-conjugated anti-mouse Endoglin (clone MJ7/18, Biolegend), anti-mouse ICAM2 (clone 3C4, Biolegend), APC-conjugated anti-mouse CD140b (clone APBS, eBioscience), PE-conjugated anti-mouse LYVE1 (clone ALY7, eBioscience), anti-mouse VEGFR3 (goat polyclonal, R&D systems), anti-mouse EphB4 (clone VEB4-7E4, Hycult biotech), and PE-conjugated anti-mouse Notch1 (clone HMN1-12, Biolegend). After washing in HBSS/2% FBS twice, the cells were incubated with the following secondary antibodies: PE-conjugated streptavidin (eBioscience), PE-conjugated anti-rat IgG2a (eBioscience), and FITC-conjugated anti-goat IgG (Invitrogen). Dead cells were excluded by 7-aminoactinomycin D (7-AAD, Invitrogen).
Flk1+ MPCs derived from mouse ESCs are capable of differentiating into ECs, hematopoietic cells, mural cells (MCs), and cardiomyocytes. To avoid cell contamination from using feeder cells for differentiation of Flk1+ MPCs, we have established a feeder cell-free 2D Matrigel system (FIG. 1A). Flk1+ MPCs were differentiated from E14tg2a ESC cell line, and when the Flk1+ MPCs were purified at day 4.5 and cultured on Matrigel-coated plates in the differentiation medium, colonies of CD144+ ECs surrounded by ┌ SMA+MCs were formed (FIG. 1B). At day 6.5, population of CD144+/CD31+ ECs grown in differentiation medium was ˜4%, whereas the same EC population was increased up to ˜20% when VEGF-A (50 ng/ml) was supplemented (FIG. 1C). For following experiments, we chose to use 50 ng/ml of VEGF-A (hereafter referred to as VEGF-A) based on its maximal effect on differentiation and expansion of ECs from Flk1+ MPCs.

SMILES: C[C@@H](N)[C@H]1CC[C@H](C(=O)Nc2ccncc2)CC1 [Y27632]
- increase of length of sprouting CD144+ VYI-ECs (VYI-ECs): 1.7 fold
- total number of CD31+/CD144+ ECs from Flk1+ MPCs (Flk1+ MPCs; 10 μM Y27632 plus VEGF-A compared to only VEGF-A (Control)): ~4.2 fold
- percentage of EC population compared to control (Flk1+ MPCs; 48 hrs after removal of the non-adherent cells at 6 hrs): 1.4 fold
- differentiation and expansion of ECs compared to control (Flk1+ MPCs; R1 ESC cell line): 1.6 fold
- increase of CD31+/CD144+ EC population compared to Control (Flk1+ MPCs; Y27632 1 μM with VEGF-A 50 ng/ml): 1.8 fold
- increase of CD31+/CD144+ EC population compared to Control (Flk1+ MPCs; Y27632 10 μM with VEGF-A 50 ng/ml): 4.1 fold
- differentiation and expansion of ECs compared to control (Flk1+ MPCs; iPSC): 5.9 fold
- percentage of EC population and total cell number, dose-dependent (Flk1+ MPCs; various concentrations of Y27632 with VEGF-A): increased
